Test results taken from ChEMBL document CHEMBL3885881, “DrugMatrix”.

Legend:
[1] = species on record: Rattus norvegicus; experiment: DrugMatrix - Regimen: Daily Repeat; format: toxicity, organism-based, Sprague-Dawley; parameters: regimen Daily Repeat, gender Male, age 6-8 weeks; details: in vivo, po, […], route oral GAVAGE, time 14 day, vehicle 100 % WATER
[2] = species on record: Rattus norvegicus; format: toxicity, organism-based, Sprague-Dawley; details: in vivo, po, 24 h, route oral GAVAGE, time 1 day, vehicle 100 % WATER
Description: DrugMatrix - Regimen: Single

[3] = 0 mg/kg, tissue Blood, dose level Control
[4] = 0 mg/kg, tissue Plasma, dose level Control
[5] = tissue Blood, dose 2.5 mg/Kg, dose level High
[6] = tissue Plasma, dose 2.5 mg/Kg, dose level High
[7] = 0 mg/kg, vehicle control, tissue Blood, dose level Control
[8] = 0 mg/kg, vehicle control, tissue Plasma, dose level Control
[9] = […], tissue Blood, dose 2.5 mg/Kg, dose level High
[10] = […], tissue Plasma, dose 2.5 mg/Kg, dose level High

Sequence: MERCURIC CHLORIDE
- ABSOLUTE BASOPHIL [1, 3]: 0 CELLS/uL
- ABSOLUTE EOSINOPHIL [1, 3]: 117.17 CELLS/uL
- ABSOLUTE MONOCYTE [1, 3]: 419 CELLS/uL
- ABSOLUTE SEGMENTED NEUTROPHIL [1, 3]: 2139.67 CELLS/uL
- BASOPHIL [1, 3]: 0%
- EOSINOPHIL [1, 3]: 0.67%
- ERYTHROCYTE COUNT [1, 3]: 6.61 x10E6/uL
- HEMATOCRIT [1, 3]: 37.58%
- HEMOGLOBIN [1, 3]: 13.8 G/DL
- LEUKOCYTE COUNT [1, 3]: 15.45 x10E3/uL
- LYMPHOCYTE [1, 3]: 83%
- MEAN CORPUSCULAR HEMOGLOBIN [1, 3]: 20.87 pg
- MEAN CORPUSCULAR HEMOGLOBIN CONCENTRATION [1, 3]: 36.72 G/DL
- MEAN CORPUSCULAR VOLUME [1, 3]: 56.85 fL
- MONOCYTE [1, 3]: 2.67%
- NEUTROPHIL [1, 3]: 13.67%
- NUCLEATED RED BLOOD CELLS [1, 3]: 0 /100WBC
- PLATELET COUNT [1, 3]: 1108.33 x10E3/uL
- ALANINE AMINOTRANSFERASE [1, 4]: 56.83 u/L
- ALKALINE PHOSPHATASE [1, 4]: 354.33 u/L
- ASPARTATE AMINOTRANSFERASE [1, 4]: 93.33 u/L
- BLOOD UREA NITROGEN [1, 4]: 16.67 mg/dL
- CARBON DIOXIDE [1, 4]: 27.83 mmol/L
- CHOLESTEROL [1, 4]: 62.33 mg/dL
- CREATININE [1, 4]: 0.2 mg/dL
- GLUCOSE [1, 4]: 137 mg/dL
- LACTATE DEHYDROGENASE [1, 4]: 407 u/L
- LIPASE [1, 4]: 10.83 u/L
- PHOSPHORUS [1, 4]: 11.45 mg/dL
- POTASSIUM [1, 4]: 6.51 MEQ/L
- SODIUM [1, 4]: 145.57 MEQ/L
- TOTAL BILIRUBIN [1, 4]: 0.2 mg/dL
- TOTAL PROTEIN [1, 4]: 6.3 G/DL
- ABSOLUTE BASOPHIL [1, 5]: 0 CELLS/uL
- ABSOLUTE EOSINOPHIL [1, 5]: 269 CELLS/uL
- ABSOLUTE LYMPHOCYTE [1, 5]: 14982 CELLS/uL
- ABSOLUTE MONOCYTE [1, 5]: 560.2 CELLS/uL
- ABSOLUTE SEGMENTED NEUTROPHIL [1, 5]: 2068.8 CELLS/uL
- BASOPHIL [1, 5]: 0%
- EOSINOPHIL [1, 5]: 1.6%
- ERYTHROCYTE COUNT [1, 5]: 6.64 x10E6/uL
- HEMATOCRIT [1, 5]: 37.88%
- LEUKOCYTE COUNT [1, 5]: 17.88 x10E3/uL
- LYMPHOCYTE [1, 5]: 83.6%
- MEAN CORPUSCULAR HEMOGLOBIN [1, 5]: 20.94 pg
- MEAN CORPUSCULAR HEMOGLOBIN CONCENTRATION [1, 5]: 36.7 G/DL
- MEAN CORPUSCULAR VOLUME [1, 5]: 57.06 fL
- MONOCYTE [1, 5]: 3.2%
- NEUTROPHIL [1, 5]: 11.6%
- NUCLEATED RED BLOOD CELLS [1, 5]: 0 /100WBC
- PLATELET COUNT [1, 5]: 1034.6 x10E3/uL
- ALANINE AMINOTRANSFERASE [1, 6]: 59.6 u/L
- ALKALINE PHOSPHATASE [1, 6]: 375 u/L
- ASPARTATE AMINOTRANSFERASE [1, 6]: 95.2 u/L
- BLOOD UREA NITROGEN [1, 6]: 17 mg/dL
- CARBON DIOXIDE [1, 6]: 23.4 mmol/L
- CHOLESTEROL [1, 6]: 68 mg/dL
- CREATININE [1, 6]: 0.22 mg/dL
- GLUCOSE [1, 6]: 151.4 mg/dL
- LACTATE DEHYDROGENASE [1, 6]: 417.8 u/L
- LIPASE [1, 6]: 10.2 u/L
- PHOSPHORUS [1, 6]: 11.36 mg/dL
- POTASSIUM [1, 6]: 6.37 MEQ/L
- SODIUM [1, 6]: 147.12 MEQ/L
- TOTAL BILIRUBIN [1, 6]: 0.18 mg/dL
- TOTAL PROTEIN [1, 6]: 6.74 G/DL
- URIC ACID [1, 6]: 2.42 mg/dL
- ABSOLUTE EOSINOPHIL [2, 7]: 91.83 CELLS/uL
- ABSOLUTE LYMPHOCYTE [2, 7]: 13862.33 CELLS/uL
- ABSOLUTE MONOCYTE [2, 7]: 437.83 CELLS/uL
- ABSOLUTE SEGMENTED NEUTROPHIL [2, 7]: 1358 CELLS/uL
- BASOPHIL [2, 7]: 0%
- EOSINOPHIL [2, 7]: 0.5%
- ERYTHROCYTE COUNT [2, 7]: 5.12 x10E6/uL
- HEMATOCRIT [2, 7]: 31.77%
- HEMOGLOBIN [2, 7]: 11.8 G/DL
- LEUKOCYTE COUNT [2, 7]: 15.75 x10E3/uL
- MEAN CORPUSCULAR HEMOGLOBIN [2, 7]: 23.07 pg
- MEAN CORPUSCULAR HEMOGLOBIN CONCENTRATION [2, 7]: 37.17 G/DL
- MONOCYTE [2, 7]: 2.67%
- NEUTROPHIL [2, 7]: 8.5%
- NUCLEATED RED BLOOD CELLS [2, 7]: 0 /100WBC
- PLATELET COUNT [2, 7]: 1113.83 x10E3/uL
- ALANINE AMINOTRANSFERASE [2, 8]: 45.5 u/L
- ALKALINE PHOSPHATASE [2, 8]: 343.83 u/L
- ASPARTATE AMINOTRANSFERASE [2, 8]: 70.67 u/L
- BLOOD UREA NITROGEN [2, 8]: 13 mg/dL
- CARBON DIOXIDE [2, 8]: 33 mmol/L
- CHLORIDE [2, 8]: 100.33 MEQ/L
- CHOLESTEROL [2, 8]: 76.67 mg/dL
- CREATININE [2, 8]: 0.12 mg/dL
- LACTATE DEHYDROGENASE [2, 8]: 116.67 u/L
- LIPASE [2, 8]: 8 u/L
- POTASSIUM [2, 8]: 6.33 MEQ/L
- TOTAL BILIRUBIN [2, 8]: 0.18 mg/dL
- TOTAL PROTEIN [2, 8]: 5.77 G/DL
- ABSOLUTE EOSINOPHIL [2, 9]: 210.67 CELLS/uL
- ABSOLUTE LYMPHOCYTE [2, 9]: 10744.33 CELLS/uL
- ABSOLUTE MONOCYTE [2, 9]: 466.33 CELLS/uL
- ABSOLUTE SEGMENTED NEUTROPHIL [2, 9]: 1512 CELLS/uL
- BASOPHIL [2, 9]: 0%
- ERYTHROCYTE COUNT [2, 9]: 5.65 x10E6/uL
- HEMATOCRIT [2, 9]: 34.1%
- HEMOGLOBIN [2, 9]: 12.63 G/DL
- LEUKOCYTE COUNT [2, 9]: 12.93 x10E3/uL
- LYMPHOCYTE [2, 9]: 84.67%
- MEAN CORPUSCULAR HEMOGLOBIN [2, 9]: 22.43 pg
- MEAN CORPUSCULAR HEMOGLOBIN CONCENTRATION [2, 9]: 37.1 G/DL
- MEAN CORPUSCULAR VOLUME [2, 9]: 60.37 fL
- MONOCYTE [2, 9]: 3.33%
- NEUTROPHIL [2, 9]: 10.67%
- NUCLEATED RED BLOOD CELLS [2, 9]: 0 /100WBC
- PLATELET COUNT [2, 9]: 1117 x10E3/uL
- ALANINE AMINOTRANSFERASE [2, 10]: 52.67 u/L
- ALBUMIN [2, 10]: 4.3 G/DL
- ALKALINE PHOSPHATASE [2, 10]: 366 u/L
- ASPARTATE AMINOTRANSFERASE [2, 10]: 77.67 u/L
- BLOOD UREA NITROGEN [2, 10]: 13 mg/dL
- CARBON DIOXIDE [2, 10]: 26 mmol/L
- CHOLESTEROL [2, 10]: 82.67 mg/dL
- CREATININE [2, 10]: 0.16 mg/dL
- LACTATE DEHYDROGENASE [2, 10]: 175 u/L
- LIPASE [2, 10]: 8 u/L
- PHOSPHORUS [2, 10]: 12.07 mg/dL
- POTASSIUM [2, 10]: 6.17 MEQ/L
- TOTAL BILIRUBIN [2, 10]: 0.17 mg/dL
- TOTAL PROTEIN [2, 10]: 6.23 G/DL
- URIC ACID [2, 10]: 1.7 mg/dL
